The text below walks through data of patent US12091426B2, “Bifunctional degraders of hematopoietic progenitor kinase and therapeutic uses thereof” (Nurix Therapeutics, Inc., priority 2021, dated 2024).

A value given as a limit tells only on which side of the number the result lay.

In the experiment the target is T1, HPK1 (Homo sapiens, UniProt Q92918).
T1 construct: A HiBiT tag was introduced by CRISPR on the N terminus of HPK1 in Jurkat cells; host or cells: Jurkat cells (ATCC TIB-152), monoclonal line with CRISPR knock-in of HiBiT at the endogenous HPK1 locus
T1 sequence (Q92918 whole entry): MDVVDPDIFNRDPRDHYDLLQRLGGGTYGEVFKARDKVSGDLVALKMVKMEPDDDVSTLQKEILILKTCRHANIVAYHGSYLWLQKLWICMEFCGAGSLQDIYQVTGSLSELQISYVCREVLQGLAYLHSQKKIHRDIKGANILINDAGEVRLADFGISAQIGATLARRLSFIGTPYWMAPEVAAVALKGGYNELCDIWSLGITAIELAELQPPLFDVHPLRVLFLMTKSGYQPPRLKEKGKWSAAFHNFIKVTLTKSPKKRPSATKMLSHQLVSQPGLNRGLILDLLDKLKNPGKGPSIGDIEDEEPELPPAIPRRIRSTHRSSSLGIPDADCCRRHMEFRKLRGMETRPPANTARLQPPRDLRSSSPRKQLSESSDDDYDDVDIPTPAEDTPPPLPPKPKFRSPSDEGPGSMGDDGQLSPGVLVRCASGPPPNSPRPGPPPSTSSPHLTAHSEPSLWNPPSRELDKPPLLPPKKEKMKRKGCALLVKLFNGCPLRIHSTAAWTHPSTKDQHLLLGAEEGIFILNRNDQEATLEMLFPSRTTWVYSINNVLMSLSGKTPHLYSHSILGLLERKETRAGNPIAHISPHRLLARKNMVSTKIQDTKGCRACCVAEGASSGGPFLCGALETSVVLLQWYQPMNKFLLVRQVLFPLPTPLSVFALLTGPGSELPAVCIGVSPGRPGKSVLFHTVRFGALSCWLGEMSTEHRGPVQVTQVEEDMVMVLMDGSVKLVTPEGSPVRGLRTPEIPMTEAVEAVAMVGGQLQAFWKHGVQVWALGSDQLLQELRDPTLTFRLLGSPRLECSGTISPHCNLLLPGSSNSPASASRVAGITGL
The experiment can be described thus: HPK1 Cellular HiBit Degradation Assay. The format is cell-based. The conditions noted are these: HiBiT HPK1 Jurkat cells, 24 hrs; for DC50: concentration at which 50% of HPK1 was remaining, read-out: DC50 Category; for Dmax: Jurkat, read-out: Dmax Category. The essentials: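 Jurkat cells with CRISPR knock-in N-terminal HiBiT-HPK1 were treated with CTMs (11-point, 3.16-fold, 10 uM to 0.1 nM final) for 24 hrs at 37° C. HiBiT lytic luminescence, with parental Jurkat as background and DMSO as 100%, gave % HPK1 remaining; four-parameter fit yielded DC50 and Dmax (100 minus lowest % remaining).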

Where [1] appears, read: maximum degradation vs DMSO vehicle control.

In the case of `CC(C)n1cnc2cc(-c3ccc4c(c3)N([C@H]3C[C@@H](N5CCCCC5)C3)C(=O)C43CCN(C(=O)C4CC5(C4)CN(C(=O)C4CCN(c6ccc(C7CCC(=O)NC7=O)cn6)CC4)C5)CC3)nc(NC3CC3)c21` (stereo partly drawn) [Example 182, 3-(6-{4-[6-({6-[4-(cyclopropylamino)-3-(propan-2-yl)-3H-imidazo[4,5-c]pyridin-6-yl]-2-oxo-1-[(1S,3S)-3-(piperidin-1-yl)cyclobutyl]-1,2-dihydrospiro[indole-3,4′-piperidine]-1′-yl}carbonyl)-2-azaspiro[3.3]heptane-2-carbonyl]piperidin-1-yl}pyridin-3-yl)piperidine-2,6-dione], the DC50 (in general, the midpoint of the concentration-degradation curve) was less than 100 nM. Under setting [1], the Dmax (usually the greatest extent of degradation seen) was more than 85%.
With `CC(C)n1cnc2cc(-c3ccc4c(c3)N(C3CC(N5CCCCC5)C3)C(=O)C43CCN(CC(=O)N4CCN(C(=O)C5CCN(c6ccc(C7CCC(=O)NC7=O)cn6)CC5)CC4)CC3)nc(NC3CC3)c21` (centres unmarked) [Example 183, 3-(6-{4-[4-(2-{6-[4-(cyclopropylamino)-3-(propan-2-yl)-3H-imidazo[4,5-c]pyridin-6-yl]-2-oxo-1-[3-(piperidin-1-yl)cyclobutyl]-1,2-dihydrospiro[indole-3,4′-piperidine]-1′-yl}Acetyl)piperazine-1-carbonyl]piperidin-1-yl}pyridin-3-yl)piperidine-2,6-dione], the DC50 was less than 100 nM. The Dmax under setting [1] is more than 85%.
For `CC(C)n1cnc2cc(-c3ccc4c(c3)N([C@H]3C[C@@H](N5CCCCC5)C3)C(=O)C43CCN(C(=O)C4(C)CCN(C(=O)N5CC6(C5)CN(c5ccc(C7CCC(=O)NC7=O)cn5)C6)CC4)CC3)nc(NC3CC3)c21` (stereo partly drawn) [Example 184, 3-(6-{6-[4-({6-[4-(cyclopropylamino)-3-(propan-2-yl)-3H-imidazo[4,5-c]pyridin-6-yl]-2-oxo-1-[(1S,3S)-3-(piperidin-1-yl)cyclobutyl]-1,2-dihydrospiro[indole-3,4′-piperidine]-1′-yl}carbonyl)-4-methylpiperidine-1-carbonyl]-2,6-diazaspiro[3.3]heptan-2-yl}pyridin-3-yl)piperidine-2,6-dione] the same measures were 100 to 500 nM and 50 to 70%.
`CC(C)n1cnc2cc(-c3ccc4c(c3)N([C@H]3C[C@@H](N5CCCCC5)C3)C(=O)C43CCN(C(=O)C4(C)CCN(C(=O)[C@H]5CC[C@H](Nc6ccc(N7CCC(=O)NC7=O)cn6)CC5)CC4)CC3)nc(NC3CC3)c21` [Example 192, 1-(6-{[(1R,4R)-4-[4-({6-[4-(cyclopropylamino)-3-(propan-2-yl)-3H-imidazo[4,5-c]pyridin-6-yl]-2-oxo-1-[(1S,3S)-3-(piperidin-1-yl)cyclobutyl]-1,2-dihydrospiro[indole-3,4′-piperidin]-1′-yl}carbonyl)-4-methylpiperidine-1-carbonyl]cyclohexyl]amino}pyridin-3-yl)-1,3-diazinane-2,4-dione]: the DC50 is less than 100 nM. Under setting [1], the Dmax was 70 to 85%.
`CC(C)n1cnc2cc(-c3ccc4c(c3)N([C@H]3C[C@@H](N5CCCCC5)C3)C(=O)C43CCN(CC(=O)N(C)C4CCN(C(=O)C5CCN(c6ccc(C7CCC(=O)NC7=O)cn6)CC5)CC4)CC3)nc(NC3CC3)c21` (stereo partly drawn) [Example 200, 2-{6-[4-(cyclopropylamino)-3-(propan-2-yl)-3H-imidazo[4,5-c]pyridin-6-yl]-2-oxo-1-[(1S,3S)-3-(piperidin-1-yl)cyclobutyl]-1,2-dihydrospiro[indole-3,4′-piperidin]-1′-yl}-N-(1-{1-[5-(2,6-dioxopiperidin-3-yl)pyridin-2-yl]piperidine-4-carbonyl}piperidin-4-yl)-N-methylacetamide]: the DC50 is 100 to 500 nM. Moreover, the Dmax under setting [1] is more than 85%.
For `CC(C)n1cnc2cc(-c3ccc4c(c3)N([C@H]3C[C@@H](N5CCCCC5)C3)C(=O)C43CCN(CC(=O)N(C)C4CCN(C(=O)C5CCN(c6cc(C7CCC(=O)NC7=O)ccn6)CC5)CC4)CC3)nc(NC3CC3)c21` (stereo partly drawn) [Example 201, 2-{6-[4-(cyclopropylamino)-3-(propan-2-yl)-3H-imidazo[4,5-c]pyridin-6-yl]-2-oxo-1-[(1S,3S)-3-(piperidin-1-yl)cyclobutyl]-1,2-dihydrospiro[indole-3,4′-piperidin]-1′-yl}-N-(1-{1-[4-(2,6-dioxopiperidin-3-yl)pyridin-2-yl]piperidine-4-carbonyl}piperidin-4-yl)-N-methylacetamide] the same measures were 100 to 500 nM and 50 to 70%.
For `CC(C)n1cnc2cc(-c3ccc4c(c3)N([C@H]3C[C@@H](N5CCCCC5)C3)C(=O)C43CCN(C(=O)C4(C)CCN(C(=O)C5CCN(c6ccc(N7CCC(=O)NC7=O)cc6)CC5)CC4)CC3)nc(NC3CC3)c21` [Example 211, 1-(4-{4-[4-({6-[4-(cyclopropylamino)-3-(propan-2-yl)-3H-imidazo[4,5-c]pyridin-6-yl]-2-oxo-1-[(1S,3S)-3-(piperidin-1-yl)cyclobutyl]-1,2-dihydrospiro[indole-3,4′-piperidin]-1′-yl}carbonyl)-4-methylpiperidine-1-carbonyl]piperidin-1-yl}phenyl)-1,3-diazinane-2,4-dione] the same measures were less than 100 nM and 70 to 85%.
For `CC(C)n1cnc2cc(-c3ccc4c(c3)N([C@H]3C[C@@H](N5CCCCC5)C3)C(=O)C43CCN(C(=O)C4(C)CCN(C(=O)C5CCN(c6ccc([C@H]7CCC(=O)NC7=O)cn6)CC5)CC4)CC3)nc(NC3CC3)c21` [Example 213, (3R)-3-(6-{4-[4-({6-[4-(cyclopropylamino)-3-(propan-2-yl)-3H-imidazo[4,5-c]pyridin-6-yl]-2-oxo-1-[(1S,3S)-3-(piperidin-1-yl)cyclobutyl]-1,2-dihydrospiro[indole-3,4′-piperidin]-1′-yl}carbonyl)-4-methylpiperidine-1-carbonyl]piperidin-1-yl}pyridin-3-yl)piperidine-2,6-dione], the DC50 was less than 100 nM. Further, the “Dmax Category” value under setting [1] is recorded as “B (B: >70%-<85%)”.
As to `CC(C)n1cnc2cc(-c3ccc4c(c3)N([C@H]3C[C@@H](N5CCCCC5)C3)C(=O)C43CCN(C(=O)[C@@H]4CCN(C(=O)C5CCN(c6ccc(N7CCC(=O)NC7=O)cc6)CC5)C4)CC3)nc(NC3CC3)c21` [Example 233, 1-(4-{4-[(3R)-3-({6-[4-(cyclopropylamino)-3-(propan-2-yl)-3H-imidazo[4,5-c]pyridin-6-yl]-2-oxo-1-[(1S,3S)-3-(piperidin-1-yl)cyclobutyl]-1,2-dihydrospiro[indole-3,4′-piperidin]-1′-yl}carbonyl)pyrrolidine-1-carbonyl]piperidin-1-yl}phenyl)-1,3-diazinane-2,4-dione], the 50% degradation concentration (DC50) was less than 100 nM. The Dmax under setting [1] was in the range of 70 to 85%.
For `CC(C)n1cnc2cc(-c3ccc4c(c3)N([C@H]3C[C@@H](N5CCCCC5)C3)C(=O)C43CCN(C(=O)C4[C@@H]5C[C@H]4CN(C(=O)[C@H]4CC[C@H](Oc6ccc(C7CCC(=O)NC7=O)cc6)CC4)C5)CC3)nc(NC3CC3)c21` (stereo partly drawn) [Example 238, 3-(4-(((1R,4R)-4-((1R,5S,6S)-6-(6-(4-(cyclopropylamino)-3-isopropyl-3H-imidazo[4,5-c]pyridin-6-yl)-2-oxo-1-((1S,3S)-3-(piperidin-1-yl)cyclobutyl)spiro[indoline-3,4′-piperidine]-1′-carbonyl)-3-azabicyclo[3.1.1]heptane-3-carbonyl)cyclohexyl)oxy)phenyl)piperidine-2,6-dione] the same measures were less than 100 nM and more than 85%.
